Data as given in article PMC3298571 (Bioorganic & medicinal chemistry, 2012).
Entries after “also recorded” stand apart in the source; their conditions may differ. Marks after values point to notes of the source that are not given here.

Assays:
Male ICR mice [1] = settings: mouse; cited from earlier work
Male ICR mice [2] = settings: mouse; cited from earlier work; remark: listed apart in the source
CB2 receptor = settings: read-out: Ki CB2; cited from earlier work
CB1 receptor [3] = settings: read-out: Ki CB1; cited from earlier work
Male ICR mice [4] = settings: mouse; cited from earlier work; remark: listed apart in the source
CB1 receptor [5] = target: CB1 receptor (Homo sapiens, UniProt P21554); assay: [35S]GTPγS binding assay; assay type: biochemical
Sequence of CB1 receptor (Homo sapiens, UniProt P21554) (P21554 whole entry): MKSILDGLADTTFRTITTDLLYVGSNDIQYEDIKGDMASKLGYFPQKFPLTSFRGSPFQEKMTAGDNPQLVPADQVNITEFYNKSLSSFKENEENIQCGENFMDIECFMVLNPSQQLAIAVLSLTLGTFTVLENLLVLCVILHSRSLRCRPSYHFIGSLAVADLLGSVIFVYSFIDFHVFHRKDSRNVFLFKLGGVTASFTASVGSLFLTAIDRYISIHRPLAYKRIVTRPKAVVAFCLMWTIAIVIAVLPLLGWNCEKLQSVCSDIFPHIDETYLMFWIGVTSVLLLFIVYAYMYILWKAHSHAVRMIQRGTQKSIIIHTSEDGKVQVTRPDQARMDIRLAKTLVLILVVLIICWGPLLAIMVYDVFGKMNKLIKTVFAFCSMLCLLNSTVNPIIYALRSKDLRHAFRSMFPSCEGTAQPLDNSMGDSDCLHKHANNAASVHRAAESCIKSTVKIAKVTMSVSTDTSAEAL

mice [6] = assay: Rimonabant antagonism of tetrad effects in mice; assay type: in vivo, mouse; settings: 3 mg/kg rimonabant, 30 mg/kg JWH-415
Male ICR mice [7] = settings: mouse; cited from earlier work; remark: listed apart in the source
mice [8] = settings: cited from earlier work
CB1 receptors = settings: [35S]GTPγS binding assay; cited from earlier work
mice [9] = settings: cited from earlier work; remark: listed apart in the source

Row | Compound | ED50 RT (Male ICR mice [1]) | ED50 SA (Male ICR mice [2]) | Ki (CB2 receptor) [nM] | Ki (CB1 receptor [3]) [nM] | ED50 TF (Male ICR mice [4]) | further results
1 | CCCCCn1cc(C(=O)c2cccc3ccccc23)c2ccccc21 [JWH-018, 1-pentyl-3-(1-naphthoyl)indole] | 1.7^e μmol / kg | 0.44^e μmol / kg | 2.9 ± 2.6 | 9 ± 5 | 0.09^e μmol / kg | 
2 | CCCn1c(C)c(C(=O)c2ccc(F)c3ccccc23)c2ccccc21 [JWH-415, 2-Methyl-1-propyl-3-(4-fluoro-1-naphthoyl)indole] |  |  |  |  |  | Efficacy at the CB1 receptor (CB1 receptor [5]): low efficacy agonist; Effect of rimonabant on tetrad effects (mice [6]): blocked or partially blocked; also recorded: rimonabant-reversible activity
3 | Cc1c(C(=O)c2cccc3ccccc23)c2cccc3c2n1[C@H](CN1CCOCC1)CO3 [WIN-55,212-2] |  | 0.23^c μmol / kg |  |  | 0.94^c μmol / kg | 
4 | CCCCCn1c(C)c(C(=O)c2ccc(CC)c3ccccc23)c2ccccc21 [JWH-213] |  |  | 0.42 ± 0.05 | 1.5 ± 0.2 |  | 
5 | CCCn1c(C)c(C(=O)c2cccc3ccccc23)c2ccccc21 [JWH-015, 1-propyl-2-methyl-3-(1-naphthoyl)indole] | 99.1^e μmol / kg | 18.7^e μmol / kg |  |  | 84.7^e μmol / kg | ED50 RI (Male ICR mice [7]): 87.2^e μmol / kg
6 | C=C1CC[C@@H]2[C@@H](C1)c1ccc(C(C)(C)CCCCCC)cc1OC2(C)C [JWH-104, deoxy-Δ^9(11)-THC-dimethylheptyl] |  |  |  | 909 |  | Effect of rimonabant on cannabimimetic effects in the battery of mouse tests (mice [8]): blocked by rimonabant; Efficacy at CB1 receptors (CB1 receptors): low efficacy agonist; Substitution for THC in drug discrimination (mice [9]): did not substitute for THC
